Data on 4 compounds can be found in patent US9499705B2, “Radically polymerizable photo-curable ink jet ink composition” (Seiko Epson Corporation, priority 2013, dated 2016).

The nature of data set [1]: Acid dissociation constant pKa of saturated aliphatic carboxylic acids. Type of data set: physicochemical. Conditions: for pKa1: first acid dissociation constant; for pKa2: second acid dissociation constant. An excerpt: The acid dissociation constant pKa1 of the saturated aliphatic carboxylic acid is preferably 4.0 or more, more preferably 4.0 to 4.5, still more preferably 4.1 to 4.5. If the saturated aliphatic carboxylic acid is divalent or more polyvalent, the second acid dissociation constant pKa2 is preferably 5.0 or more. The acid dissociation constant pKa can be measured by, for example, titration, absorptiometry, or capillary electrophoresis.

Data set [2] is described as follows: Redispersibility after long-time storage (rate of change in absorbance of agitated ink after one year). Type of data set: physicochemical. Particulars: redispersing effect of the saturated aliphatic carboxylic acid in the ink. On the procedure: Ink bags containing respective ink compositions were allowed to stand at room temperature (25° C.) with the rectangular face of the ink bag in a horizontal position for a year. […] Subsequently, the ink bag was turned upside down and was reciprocally moved 50 times in the same manner with the rectangular face of the ink gab in a horizontal position. After the ink composition in the ink bag was thus agitated, the ink composition was sampled from the upper side in the ink gab with the ink inlet facing up. Then, the absorbance of the sampled ink composition was measured with a spectrophotometer U-3300 (manufactured by Hitachi) and compared with the absorbance before the storage. […] As a larger amount of sediment settles, the density of the white pigment in the ink composition tends to be reduced, and accordingly the absorbance after storage is generally low.

In data set [1], `O=C(O)CCCCC(=O)O` [Adipic acid] gave a pKa1 of 4.26 and a pKa2 of 5.03. In data set [2], the Redispersion result is on record as “Excellent”.
Take `O=C(O)CC(O)(CC(=O)O)C(=O)O` [Citric acid]: in data set [1], the pKa1 is 2.87 and the pKa2 came to 4.35. Moreover, the pKa3 in data set [1] (third acid dissociation constant) was determined as 5.69. Besides, the Redispersion entry in data set [2] is listed as “Fair”.
Compound `CCCCCCCCCCCCCCCC(=O)O` [Palmitic acid] displayed a pKa1 in data set [1] of 4.64. For the same compound, the Redispersion entry in data set [2] is recorded as “Good”.
In data set [1], `O=C(O)CCC(=O)O` [Succinic acid] showed a pKa1 of 4 and a pKa2 of 5.24. For the same compound, in data set [2], the Redispersion entry is reported as “Good”.
